Laboratory results published in the Bradley open melting point set (2014).
“And” between values parts separate entries of the source, which are not always exact repeats. Equal values may be shown once.

Work on `C/C(CCc1oc2ccc(Cl)cc2c1-c1ccc(C)o1)=N\O` yielded a melting point of 115 °C.
With `C/C=C/C1Nn2c(nnc2-c2cccnc2)S1` (stereo not given) the melting point was 121 °C.
With `C=C1/C(=N/Nc2cc(Cl)c(Cl)cc2Cl)C(=O)N(C)C(=O)N1C` the melting point was 244 °C.
`CC(=O)/C(=N/Nc1cc(Cl)ccc1Cl)C(=O)C(F)(F)F` gave a melting point of 84 °C.
For `CC(=O)N(C(C)=O)c1cc(/C=C/C(=O)O)ccc1/C=C/C(=O)O`, the melting point was 313 °C.
Work on `CC(=O)Oc1c(-c2ccccc2)n(C(C)=O)c2cc([N+](=O)[O-])c(/C(Cl)=C/c3ccccc3)cc12` yielded a melting point of 58 °C.
For `CC1(C)C(=O)OC2=C(CCC/C2=C\c2ccccc2)C1c1ccccc1` (stereo not given), the melting point was 156 °C.
Work on `CC1=NN(CN2CCCCC2)C(=O)/C1=N\Nc1ccc(Cl)cc1Cl` yielded a melting point of 123 °C.
For `CC1CCC(C(C)C)C(OC(=O)/C(=C/c2ccccc2)Cc2ccccc2)C1` (stereo not given), the melting point was 65 °C.
Work on `CC1CCC(C(C)C)C(OC(=O)C(=O)/C=C/c2ccccc2)C1` (stereo not given) yielded a melting point of 46 °C.
With `CCOC(=O)/C(=N/Nc1cc(Cl)ccc1Cl)C(=O)C(F)(F)F` the melting point was 147 °C.
In the case of `CCOC(=O)/C(=N/Nc1ccc(Cl)cc1)C(=O)C(F)(F)F`, the melting point is reported as 76 °C.
With `CN(C)c1ccc(/C=C(/C#N)c2nc(-c3ccc(Cl)cc3)cs2)cc1` the melting point was 134 °C.
With `COC1=C(OC)/C(=C/C2CCC=CC23OC(=O)C(OC)=C3OC)OC1=O` (stereo not given) the melting point was 119 °C.
Work on `COc1cc(/C=C/C(=O)NCCc2ccc(OCc3ccccc3)c(OC)c2)ccc1OCc1ccccc1` yielded a melting point of 164 °C.
In the case of `COc1cc(C)c2c(c1)CC/C(=C\c1ccccc1)C2=O`, the melting point is reported as 97 °C.
Work on `COc1ccc(-c2csc(/C(C#N)=C/c3ccc(Cl)cc3Cl)n2)cc1` yielded a melting point of 143 °C.
Work on `COc1ccc(-c2csc(/C(C#N)=N/Nc3cc(C)ccc3C)n2)cc1` yielded a melting point of 156 °C.
`COc1ccc(-c2csc(/C(C#N)=N/Nc3ccc(C)cc3)n2)cc1` gave a melting point of 152 °C.
`COc1ccc(/C=C(\Oc2ccc(Cl)cc2)c2nc3ccccc3s2)cc1` gave a melting point of 138 °C.
Molecule `COc1ccc(N/N=C2/C(=O)N(CO)N=C2C(F)(F)F)cc1` has a melting point of 143 °C.
`COc1ccccc1-c1ccc(/C=C/C(=O)c2ccco2)o1` gave a melting point of 97 °C.
Molecule `Cc1ccc(/C=C(\Oc2cccc(C)c2)c2nc3ccccc3s2)cc1` has a melting point of 138 °C.
`Cc1cccc(N/N=C(\C#N)c2nc(-c3ccc(Cl)cc3)cs2)c1` showed a melting point of 158 °C.
In the case of `Cc1nc(/C(C#N)=C\c2ccc(Cl)cc2Cl)sc1/N=N/c1ccc(F)cc1`, the melting point is reported as 139 °C.
Molecule `Cn1c(/C(C#N)=C/c2ccc(F)cc2)nc2ccccc21` has a melting point of 134 °C.
In the case of `Cn1c(/C(C#N)=N/Nc2ccc(Cl)cc2Cl)nc2ccccc21`, the melting point is reported as 161 °C.
`N#C/C(=C\c1ccc(Cl)cc1)c1nc(-c2cccc3ccccc23)cs1` showed a melting point of 131 °C.
`C(=NNc1ccccc1)C(=NNc1ccccc1)c1cccc(C(C=NNc2ccccc2)=NNc2ccccc2)c1` gave a melting point of 165 °C.
`O=C1/C(=N\Nc2cccc(F)c2)C(C(F)(F)F)=NN1c1ccccc1` gave a melting point of 106 °C.
Work on `O=[N+]([O-])c1ccc(N/N=C2/Cc3c2ccc2ccccc32)c([N+](=O)[O-])c1` yielded a melting point of 275 °C.
Molecule `CC(CCc1oc2ccc(C)cc2c1-c1ccc(C)o1)=NO` has a melting point of 104 °C.
In the case of `N#CC(=Cc1cccc(O)c1)C1N=c2ccccc2=N1`, the melting point is reported as 300 °C.
In the case of `CC(O)CN` (racemic) [dl-1-amino-2-propanol], the melting point is reported as -2 °C.
In the case of `O=C[C@H](O)[C@@H](O)[C@@H](O)CO` (racemic) [dl-arabinose], the melting point is reported as 159 °C.
With `CC(C)CC(N)C(=O)O` (stereo in doubt) [D-Leucine] the melting point was 293 °C.
Work on `CC(=O)OC[C@H]1O[C@@H](OC(C)=O)[C@H](OC(C)=O)[C@@H]1OC(C)=O` (stereo in doubt) [beta-D-ribofuranose 1,2,3,5-tetraacetate] yielded a melting point of 82 °C.
With `CCCCCC=CCC=CCCCCCCCC(=O)O` (stereo in doubt) [linoleic acid] the melting point was -8.5 °C.
With `O=C1CCC(c2ccccc2)c2ccccc21` (stereo not given) [1(2H)-Naphthalenone, 3,4-dihydro-4-phenyl-] the melting point was 75 °C.
`S=P(N1CC1)(N1CC1)N1CC1` [1,1',1''-Phosphorothioyltriaziridine] gave a melting point of 51.5 °C.
`OC(C(F)(F)F)C(F)(F)F` [1,1,1,3,3,3-Hexafluoropropan-2-ol] showed a melting point of -3 °C.
With `CC(CO)(CO)CO` [1,1,1-tris(hydroxymethyl)ethane] the melting point was 190 °C.
`OC(c1ccccc1)(c1ccccc1)C(O)(c1ccccc1)c1ccccc1` [1,1,2,2-Tetraphenylethane-1,2-diol] gave a melting point of 171 °C.
In the case of `ClC(Cl)C(Cl)Cl` [1,1,2,2-tetrachloroethane], the melting point is reported as -43 °C.
Work on `C#CC(O)(c1ccccc1)c1ccccc1` [1,1-diphenyl-2-propyn-1-ol] yielded a melting point of 46 °C.
`OC1CC2=C(CC=CC2)CC1O` (stereo not given) [1,2,3,4,5,8-hexahydronaphthalene-2,3-diol] showed a melting point of 121 °C.
`Fc1ccc(F)c(F)c1F` [1,2,3,4-tetrafluorobenzene] gave a melting point of -42 °C.
Work on `Cc1ccc(C)c(C)c1C` [1,2,3,4-tetramethylbenzene] yielded a melting point of -6 °C.
With `Clc1cc(Cl)c(Cl)c(Cl)c1` [1,2,3,5-tetrachlorobenzene] the melting point was 53 °C and 55 °C and 51.5 °C.
Work on `Clc1cccc(Cl)c1Cl` [1,2,3-Trichlorobenzene] yielded a melting point of 53 °C.
`c1c[nH]nn1` [1,2,3-triazole] gave a melting point of 24 °C.
In the case of `BrCC(Br)CBr` [1,2,3-tribromopropane], the melting point is reported as 17 °C.
`Clc1cccc(Cl)c1Cl` [1,2,3-trichlorobenzene] showed a melting point of 54 °C.
In the case of `COc1cccc(OC)c1OC` [1,2,3-trimethoxybenzene], the melting point is reported as 45 °C.
With `Clc1cc(Cl)c(Cl)cc1Cl` [1,2,4,5-Tetrachlorobenzene] the melting point was 139 °C.
For `Brc1cc(Br)c(Br)cc1Br` [1,2,4,5-tetrabromobenzene], the melting point was 182 °C.
For `Clc1ccc(Cl)c(Cl)c1` [1,2,4-Trichlorobenzene], the melting point was 17 °C.
Work on `Sc1nnc2ccccn12` [1,2,4-triazolo[4,3-a]pyridine-3-thiol] yielded a melting point of 210 °C.
For `Brc1ccc(Br)c(Br)c1` [1,2,4-tribromobenzene], the melting point was 43 °C (2×) and 44 °C.
`Clc1cc(Cl)c(I)cc1Cl` [1,2,4-trichloro-5-iodobenzene] showed a melting point of 104 °C.
Work on `Clc1ccc(Cl)c(Cl)c1` [1,2,4-trichlorobenzene] yielded a melting point of 17 °C.
Molecule `Cc1ccc(C)c(C)c1` [1,2,4-trimethylbenzene] has a melting point of -44 °C.
In the case of `OCCCCC(O)CO` (stereo not given) [1,2,6-hexanetriol], the melting point is reported as -20 °C.
`c1cc2c3c(cccc3c1)CC2` [1,2-Dihydroacenaphthylene] showed a melting point of 95 °C.
`c1ccc(NNc2ccccc2)cc1` [1,2-Diphenylhydrazine] showed a melting point of 125 °C.
With `C[C@@H](O)CO` [1,2-Propanediol] the melting point was -60 °C.
`CP(C)CCP(C)C` [1,2-bis(dimethylphosphino)ethane] showed a melting point of 180 °C.
In the case of `Cc1ccc(CCc2ccc(C)cc2)cc1` [1,2-di(p-tolyl)ethane], the melting point is reported as 81 °C.
`CCC(Br)CBr` (stereo not given) [1,2-dibromobutane] showed a melting point of -65 °C.
`BrCCBr` [1,2-dibromoethane] [listing 1 of 2 here] gave a melting point of 10 °C.
For `BrCCBr` [1,2-dibromoethane] [listing 2 of 2 here], the melting point was 10 °C.
In the case of `CC(Cl)CCl` (stereo not given) [1,2-dichloropropane], the melting point is reported as -100 °C.
In the case of `CCOc1ccccc1OCC` [1,2-diethoxybenzene], the melting point is reported as 44 °C.
`CCc1ccccc1CC` [1,2-diethylbenzene] showed a melting point of -31 °C.
For `ICCI` [1,2-diiodoethane] [listing 1 of 2 here], the melting point was 82 °C.
Molecule `ICCI` [1,2-diiodoethane] [listing 2 of 2 here] has a melting point of 81 °C.
`C1=CC=C/C=CC=C1` [1,3,5,7-cyclooctatetraene] showed a melting point of -5 °C.
In the case of `Clc1cc(Cl)cc(Cl)c1` [1,3,5-Trichlorobenzene], the melting point is reported as 64 °C.
In the case of `Clc1cc(Cl)c(I)c(Cl)c1` [1,3,5-trichloro-2-iodobenzene], the melting point is reported as 55 °C.
For `Clc1cc(Cl)cc(Cl)c1` [1,3,5-trichlorobenzene], the melting point was 64 °C.
In the case of `O=[N+]([O-])c1c(F)cc(F)cc1F` [1,3,5-trifluoro-2-nitrobenzene], the melting point is reported as 4 °C.
For `CC(C)c1cc(C(C)C)cc(C(C)C)c1` [1,3,5-triisopropylbenzene], the melting point was -7 °C.
`COc1cc(OC)cc(OC)c1` [1,3,5-trimethoxybenzene] showed a melting point of 53 °C.
For `O=c1n(CCO)c(=O)n(CCO)c(=O)n1CCO` [1,3,5-tris(2-hydroxyethyl)cyanuric acid], the melting point was 138 °C.
For `O=C(Nc1ccccc1)Nc1ccccc1` [1,3-DIPHENYLUREA], the melting point was 232 °C.
In the case of `C1COCOC1` [1,3-Dioxane], the melting point is reported as -42 °C.
For `OCc1cccc(CO)c1` [1,3-benzenedimethanol] [listing 1 of 2 here], the melting point was 58 °C.
Molecule `OCc1cccc(CO)c1` [1,3-benzenedimethanol] [listing 2 of 2 here] has a melting point of 58 °C.
For `c1ccc(P(CCCP(c2ccccc2)c2ccccc2)c2ccccc2)cc1` [1,3-bis(diphenylphosphino)propane], the melting point was 61 °C.
In the case of `C(=C\c1cccc(/C=C/c2ccccc2)c1)/c1ccccc1` [1,3-bis[(E)-2-phenylethenyl]benzene], the melting point is reported as 150 °C.
With `CC(=O)c1cccc(C(C)=O)c1` [1,3-diacetylbenzene] the melting point was 36 °C.
`BrCCCBr` [1,3-dibromopropane] showed a melting point of -34 °C.
`Cl/C=C/CCl` [1,3-dichloropropene, cis trans] gave a melting point of -84 °C.
Molecule `Oc1cc(O)c2ccccc2c1` [1,3-dihydroxynaphthalene] has a melting point of 125 °C.
In the case of `CN1CCCN(C)C1=O` [1,3-dimethyl-3,4,5,6-tetrahydro-2(1h)-pyrimidinone], the melting point is reported as -23 °C.
Molecule `C1COCO1` [1,3-dioxolane] has a melting point of -95 °C.
Molecule `OC(COc1ccccc1)COc1ccccc1` [1,3-diphenoxy-2-propanol] has a melting point of 82 °C.
Work on `O=C(Cc1ccccc1)Cc1ccccc1` [1,3-diphenylacetone] [listing 1 of 2 here] yielded a melting point of 33 °C.
For `O=C(Cc1ccccc1)Cc1ccccc1` [1,3-diphenylacetone] [listing 2 of 2 here], the melting point was 34 °C.
For `c1ccc(CCCc2ccccc2)cc1` [1,3-diphenylpropane], the melting point was -21 °C.
With `Cc1ccc(S(=O)(=O)OCCCOS(=O)(=O)c2ccc(C)cc2)cc1` [1,3-propanediol di-p-toluenesulfonate] the melting point was 91 °C.
Molecule `SCCCS` [1,3-propanedithiol] has a melting point of -79 °C.
Work on `O=C1C=CC(=O)C=C1` [1,4-Benzoquinone] yielded a melting point of 114 °C.
`Brc1ccc(Br)cc1` [1,4-Dibromobenzene] showed a melting point of 88 °C.
For `O=C1C=CC(=O)c2ccccc21` [1,4-Naphthoquinone], the melting point was 126 °C.
